Measurements taken from patent US20240216354A1, “IMMUNOMODULATORY IMIDE DRUGS AS ZETA-CHAIN-ASSOCIATED PROTEIN KINASE 70 (ZAP70) AGONISTS AND USES THEREOF” (Dana-Farber Cancer Institute, Inc., priority 2019, published 2024).

What was measured:
Format in all cases: cell-based
NK-92 cells = assay: NK-92 cell growth by MTT assay; settings: Pom 0.03-3 μM, 72 h
Method: (§1) (A) NK-92 cells were cultured with Pom (0.5 and 1 μM) for 24 h. Whole cell lysates were subjected to immunoblotting using indicated Abs. (B) NK-92 cells were cultured with Pom (0.5 and 1 μM) for 48 h. The cells were subsequently incubated with calcein-AM-stained U266 cells for 4 h at the indicated effector/target (E/T) ratios. Percent specific lysis was calculated as described previously. (C) NK-92 cells were cultured with Pom (0.03-3 μM) for 72 h. Cell growth was assessed by MTT assay. (D) NK-92 cells were transfected with scrambled (Sc) or Zap-70 siRNA (Zap70si). After 72 h incubation, cell viability was measured by trypan-blue dye exclusion. For B, C, and D, data are representative of at least two independent experiments, and values are expressed in mean±SD.

Zap-70 = target: T1, Zap-70 (Homo sapiens, UniProt P43403); assay: Immunoblotting of p-Zap-70 in Jurkat cells; settings: 16 h
T1 sequence (P43403 1-619): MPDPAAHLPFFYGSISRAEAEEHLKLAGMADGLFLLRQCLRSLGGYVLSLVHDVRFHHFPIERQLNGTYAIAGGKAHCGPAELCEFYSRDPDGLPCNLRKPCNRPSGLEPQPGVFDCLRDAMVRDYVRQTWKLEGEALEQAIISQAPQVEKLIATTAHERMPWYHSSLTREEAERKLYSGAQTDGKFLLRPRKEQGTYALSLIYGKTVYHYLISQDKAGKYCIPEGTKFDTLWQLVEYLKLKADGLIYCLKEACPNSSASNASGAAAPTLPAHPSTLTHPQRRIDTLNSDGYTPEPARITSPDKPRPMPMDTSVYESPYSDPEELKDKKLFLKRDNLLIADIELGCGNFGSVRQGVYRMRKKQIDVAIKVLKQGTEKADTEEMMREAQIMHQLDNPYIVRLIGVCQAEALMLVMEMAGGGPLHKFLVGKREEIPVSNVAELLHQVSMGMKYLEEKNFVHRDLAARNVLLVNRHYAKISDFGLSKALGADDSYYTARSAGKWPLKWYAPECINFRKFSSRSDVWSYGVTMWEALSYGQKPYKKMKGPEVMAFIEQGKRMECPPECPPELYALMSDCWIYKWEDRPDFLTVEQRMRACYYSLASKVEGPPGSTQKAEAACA
Method: (A) PBMCs were cultured with pomalidomide (“Pom”) (0.01-1 μM) for 16 h. […] (B) PBMCs were cultured with pomalidomide (0.1 and 1 μM) for the indicated time periods. (C) PBMCs were cultured with lenalidomide (“Len”) (1 μM) for 16 h. (D) Primary T-cells from healthy volunteer were cultured with pomalidomide (0.25-1 μM) for 16 h. (E) Jurkat cells were cultured with pomalidomide (0.5 and 1 μM) for 16 h. Whole cell lysates were subjected to immunoblotting (A-E) using indicated Abs. (F) Jurkat cells were cultured with pomalidomide (0.01-1 μM) or lenalidomide (0.01-1 μM) for 72 h. Cell growth was assessed by MTT assay.
(A) Jurkat cells were transfected with scrambled siRNA (Scsi) or CRBN siRNA (CRBNsi). Whole cell lysates were subjected to immunoblotting using indicated Abs. (B) Jurkat cells transfected with Scsi or CRBNsi were cultured with pomalidomide (1 μM) for 16 h. Whole cell lysates were subjected to immunoblotting using indicated Abs. (C) Jurkat cells were transfected with Scsi or Zap-70 siRNA (Zap-70si) (left panel). The transfectants were further cultured for 72 h, and cell growth was assessed by MTT assay (right panel).

U266 cells = assay: NK-92 NK cell activity against calcein-AM-stained U266 cells; settings: NK-92 cells, 48 h; Pom 0.5 and 1 μM; CC-220 0.1 and 1 μM, E/T 2.5/1
Method: as §1
(A) NK-92 cells were cultured with Len (1 μM), Pom (0.01, 0.1, 1 μM) or CC-220 (0.01, 0.1, 1 μM) for 24 h. Whole cell lysates were subjected to immunoblotting using indicated Abs. (B) NK-92 cells were cultured with Pom (0.1 and 1 μM) or CC-220 ([…]) for 48 h. NK cell activity was measured by incubation with calcein AM-labeled U266 cells for 4 h at E/T ratio of 2.5/1. Percent specific lysis was calculated as previously described. Data are representative of three independent experiments, and values are expressed in mean±SD. *: p<0.01.

p-Zap-70 induced by pomalidomide in CRBN-knockdown versus control Sc KD cells (Zap-70; CRBN siRNA, pomalidomide 1 μM): No significant change
SMILES: Nc1cccc2c1C(=O)N(C1CCC(=O)NC1=O)C2=O (stereo not shown) [pomalidomide]
cell growth (MTT) (NK-92 cells): neither Pom nor Zap-70 KD altered growth in NK-92 cells
p-Zap-70 (immunoblotting) (Zap-70; pomalidomide 0.5 and 1 μM): similarly induced p-Zap-70 in Jurkat cells in a dose-dependent fashion
NK cell activity against U266 cells (percent specific lysis) (U266 cells): upregulated NK activity
